Assay results: US11345702B1 (Myoforte Therapeutics, Inc., priority 2020, dated 2022)

Biological target: 15-PGDH/HPGD (Homo sapiens (Human), UniProt P15428)
Assay: hPGDH inhibitor screening biochemical assay
Conditions: read-out: hPGDH: Average IC50
Procedure, shortened: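 Recombinant human 15-PGDH (10 nM) pre-incubated with compounds 10 min at 37 °C, then 15 μM PGE2 and 0.25 mM NAD+ added for 10 min at room temperature in 50 mM Tris-HCl pH 7.5, 0.01% Tween 20. NADH fluorescence read at ex/em 340/485 nm. IC50 from 10-point curves, four-parameter fit versus 1% DMSO.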

Sequence of 15-PGDH/HPGD (P15428 whole entry): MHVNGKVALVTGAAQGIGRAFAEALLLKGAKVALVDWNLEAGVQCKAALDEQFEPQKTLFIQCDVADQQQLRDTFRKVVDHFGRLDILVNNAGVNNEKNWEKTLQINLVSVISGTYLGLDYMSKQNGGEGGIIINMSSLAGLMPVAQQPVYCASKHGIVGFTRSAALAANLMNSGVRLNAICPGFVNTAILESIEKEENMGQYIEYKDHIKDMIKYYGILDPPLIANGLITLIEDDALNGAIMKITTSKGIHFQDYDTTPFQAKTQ

SMILES | IC50
O=C(c1cnc2c(c1)ncn2-c1cccc(OC(F)(F)F)c1)N1CCC(F)CC1 [MF-DH-226] | 100 to 1000 nM
COc1cccc(C(=O)Nc2ccc(C(=O)N3CCCCC3)cc2)c1 [MF-PGDH-089] | 100 to 1000 nM
CC1(C)CCN(c2cnccn2)c2ccc(C(=O)N3CCC(F)CC3)cc21 [MF-DH-160, (4,4-dimethyl-1-(pyrazin-2-yl)-1,2,3,4-tetrahydroquinolin-6-yl)(4-fluoropiperidin-1-yl)methanone] | 100 to 1000 nM
O=C(c1ccc2c(c1)CCC(=O)N2c1cccc(Cl)c1)N1CCCCC1 [MF-PGDH-058, 1-(3-chlorophenyl)-6-(piperidine-1-carbonyl)-3,4-dihydroquinolin-2(1H)-one] | 100 to 1000 nM
COc1ccccc1C(=O)Nc1ccc(C(=O)N2CCC(F)(F)CC2)cc1 [MF-PGDH-087] | 100 to 1000 nM
COc1cc(C(=O)N2CCC(F)CC2)ccc1COc1ccccc1Cl [MF-DH-118] | 100 to 1000 nM
CCn1cnc(-n2ccc3cc(C(=O)N4CCCCC4)cnc32)c1 [MF-PGDH-073] | 100 to 1000 nM
NC(=O)CCc1nc2cc(C(=O)N3CCCCC3)ccc2n1-c1cccc(Cl)c1 [MF-PGDH-035, 3-(1-(3-chlorophenyl)-5-(piperidine-1-carbonyl)-1H-benzo[d]imidazol-2-yl)propanamide] | < 100 nM
O=C(c1cnc2c(ccn2-c2cncc(Cl)c2)c1)N1CCCCC1 [MF-DH-295] | < 100 nM
O=C(c1ccc2c(c1)ncn2-c1cccc(Cl)c1)N1CCC(O)CC1 [MF-PGDH-052] | 100 to 1000 nM
O=C(NC1CCNCC1)c1ccc(-n2ccc3cc(C(=O)N4CCC(F)(F)CC4)cnc32)cc1 [MF-DH-419] | < 100 nM
O=C(c1ccc(COc2ccccc2Cl)cc1)N1CCCCC1 [MF-PGDH-037] | < 100 nM
O=C(c1ccc(CS(=O)(=O)c2ccccc2Cl)cc1)N1CCCCC1 [MF-PGDH-040, (4-(((2-chlorophenyl)sulfonyl)methyl)phenyl)(piperidin-1-yl)methanone] | 100 to 1000 nM
COc1ccc(-n2c(C3CC3)nc3cc(C(=O)N4CCCCC4)ccc32)cc1 [MF-PGDH-021] | 100 to 1000 nM
O=C(c1cnc2c(ccn2-c2ccc(O)nc2)c1)N1CCCCC1 [MF-DH-321] | < 100 nM
O=C(c1cnc2c(ccn2-c2cnccn2)c1Cl)N1CCC(F)CC1 [MF-DH-146] | < 100 nM
COc1ccc(-c2cn(C)c3cc(C(=O)N4CCC(F)CC4)cnc23)cc1 [MF-DH-181, (4-fluoropiperidin-1-yl)(3-(4-methoxyphenyl)-1-methyl-1H-pyrrolo[3,2-b]pyridin-6-yl)methanone] | 100 to 1000 nM

SMILES | IC50
N#Cc1ccc(-n2ccc3cc(C(=O)N4CCC(F)(F)CC4)cnc32)cc1O [MF-DH-441] | < 100 nM
COc1ccc(-n2ccc3cc(C(=O)N4CCN(CC(F)(F)F)CC4)cnc32)cc1 [MF-DH-327] | ≥ 1000 nM
O=C1CCN(C(=O)c2ccc3c(c2)ncn3-c2cccc(Cl)c2)C1 [MF-PGDH-090, 1-(1-(3-chlorophenyl)-1H-benzo[d]imidazole-5-carbonyl)pyrrolidin-3-one] | ≥ 1000 nM
O=C(c1cnc2c(ccn2C2CCC(F)(F)CC2)c1)N1CCCCC1 [MF-DH-284] | ≥ 1000 nM
CC(C)(O)C#Cc1nc2cc(C(=O)N3CCC(F)(F)CC3)cnc2n1-c1ccc(C#N)cc1 [MF-DH-476, 4-(6-(4,4-difluoropiperidine-1-carbonyl)-2-(3-hydroxy-3-methylbut-1-yn-1-yl)-3H-imidazo[4,5-b]pyridin-3-yl)benzonitrile] | 100 to 1000 nM
COCCc1nc2cc(C(=O)N3CCC(F)CC3)cnc2n1-c1ccc(OC)cc1 [MF-DH-185] | ≥ 1000 nM
N#Cc1ccc(-n2ccc3cc(C(=O)N4CCC(F)CC4)ncc32)cc1 [MF-DH-463, 4-(5-(4-fluoropiperidine-1-carbonyl)-1H-pyrrolo[2,3-c]pyridin-1-yl)benzonitrile] | ≥ 1000 nM
N#Cc1ccc(-n2ccc3cc(C(=O)N4CCCCC4)cnc32)cn1 [MF-DH-389] | < 100 nM
O=C(c1ccc2c(c1)ncn2-c1cccc(Cl)c1)N1CC2CCCC2C1 (stereo not shown) [MF-PGDH-015] | < 100 nM
O=C(c1ccc2c(c1)ncn2-c1cccc(Cl)c1)N1CCC(O)C1 (stereo not shown) [MF-PGDH-050] | ≥ 1000 nM
COc1ccc(-n2ccc3cc(C(=O)N4CCC(c5ccccc5)CC4)cnc32)cc1 [MF-DH-325] | ≥ 1000 nM
O=C(c1ccc(C[S+]([O-])c2ccccc2Cl)cc1)N1CCCCC1 (stereo not shown) [MF-PGDH-045, (4-(((2-chlorophenyl)sulfinyl)methyl)phenyl)(piperidin-1-yl)methanone] | 100 to 1000 nM
O=C(c1ccc2c(c1)ncn2-c1cccc(Cl)c1)N1CC2(CCC2)C1 [MF-PGDH-019] | < 100 nM
CC1(C)CN(C(=O)c2ccc3c(c2)ncn3-c2cccc(Cl)c2)C1 [MF-PGDH-105] | 100 to 1000 nM
COc1ccc(-n2ccc3c(NCc4ccccc4)c(C(=O)N4CCCCC4)cnc32)cc1 [MF-DH-385, (4-(benzylamino)-1-(4-methoxyphenyl)-1H-pyrrolo[2,3-b]pyridin-5-yl) (piperidin-1-yl) methanone] | 100 to 1000 nM
CN(C)c1ccc(-n2ccc3cc(C(=O)N4CCC(F)CC4)cnc32)cc1 [MF-DH-346] | < 100 nM

Results, then the molecule that gave them:

IC50 | SMILES
< 100 nM | CCOC(=O)CCc1nc2cc(C(=O)N3CCCCC3)ccc2n1-c1cccc(Cl)c1 [MF-PGDH-033, ethyl 3-(1-(3-chlorophenyl)-5-(piperidine-1-carbonyl)-1H-benzo[d]imidazol-2-yl)propanoate]
< 100 nM | N#Cc1ccc(-n2cnc3cc(C(=O)N4CC(Cl)C4)cnc32)cc1 [MF-DH-443]
< 100 nM | CN(C)C(=O)c1cncc(-n2ccc3cc(C(=O)N4CCCCC4)cnc32)c1 [MF-DH-363]
< 100 nM | COc1ccc(-n2cc(Cl)c3cc(C(=O)N4CCC(F)CC4)cnc32)cc1 [MF-DH-191, (3-chloro-1-(4-methoxyphenyl)-1H-pyrrolo[2,3-b]pyridin-5-yl)(4-fluoropiperidin-1-yl)methanone]
< 100 nM | NS(=O)(=O)c1cccc(-n2ccc3cc(C(=O)N4CCC(F)(F)CC4)cnc32)c1 [MF-DH-495]
< 100 nM | Cn1cc(-n2cc(Cl)c3cc(C(=O)N4CCC(F)CC4)cnc32)cn1 [MF-DH-140]
< 100 nM | O=C(c1ccc(-n2ccc3cc(C(=O)N4CCC(F)(F)CC4)cnc32)cc1)N(CCO)CCO [MF-DH-451]
< 100 nM | NCc1ccc(-n2ccc3cc(C(=O)N4CCCCC4)cnc32)cc1 [MF-DH-304]
< 100 nM | N#Cc1ccc(-n2ccc3cc(C(=O)N4CCC(F)(F)CC4)cnc32)cc1 [MF-DH-439]
< 100 nM | O=C(c1cnc2c(ccn2-c2ccncn2)c1)N1CCC(F)CC1 [MF-DH-131]
< 100 nM | NC(=O)c1cncc(-n2ccc3cc(C(=O)N4CCCCC4)cnc32)c1 [MF-DH-361]
< 100 nM | O=C(c1cnc2c(ccn2-c2cccc(C(=O)N3CC[S+]([O-])C3)c2)c1)N1CCC(F)(F)CC1 (stereo not shown) [MF-DH-527, (4,4-difluoropiperidin-1-yl)(1-(3-(1-oxidothiazolidine-3-carbonyl)phenyl)-1H-pyrrolo[2,3-b]pyridin-5-yl)methanone]
< 100 nM | O=C(c1cnc2c(ccn2-c2cncc(NS(=O)(=O)C3CC3)c2)c1)N1CCC(F)(F)CC1 [MF-DH-484, N-(5-(5-(4,4-difluoropiperidine-1-carbonyl)-1H-pyrrolo[2,3-b]pyridin-1-yl)pyridin-3-yl)cyclopropanesulfonamide]
< 100 nM | NC(=O)c1ccc(-n2ccc3cc(C(=O)N4CCC(F)CC4)cnc32)cn1 [MF-DH-355]
< 100 nM | COc1ccc(-n2ccc3c(C#N)c(C(=O)N4CCCCC4)cnc32)cc1 [MF-DH-289, 1-(4-methoxyphenyl)-5-(piperidine-1-carbonyl)-1H-pyrrolo[2,3-b]pyridine-4-carbonitrile]
< 100 nM | Cn1cc(-c2cccc(Cl)c2)c2ccc(C(=O)N3CCCCC3)cc21 [MF-PGDH-054, (3-(3-chlorophenyl)-1-methyl-1H-indol-6-yl)(piperidin-1-yl)methanone]
< 100 nM | O=C(O)Cc1ccc(-n2ccc3cc(C(=O)N4CCC(F)(F)CC4)cnc32)cc1 [MF-DH-426, 2-(4-(5-(4,4-difluoropiperidine-1-carbonyl)-1H-pyrrolo[2,3-b]pyridin-1-yl)phenyl)acetic acid]
< 100 nM | O=C(c1cnc2c(c1)c(Cl)cn2-c1ccc2c(c1)OC(F)(F)O2)N1CCCCC1 [MF-DH-251]
< 100 nM | O=C(NC1CNC1)c1ccc(-n2ccc3cc(C(=O)N4CCC(F)(F)CC4)cnc32)cc1 [MF-DH-420]
< 100 nM | O=C(c1ccc(COc2ccccc2-c2ccccn2)cc1)N1CCCCC1 [MF-PGDH-095]
< 100 nM | N#Cc1ccc(-n2ccc3cc(C(=O)N4CC[C@@H](F)C4)cnc32)cc1 (single isomer, unassigned) [MF-DH-575]
< 100 nM | O=C(O)c1ccc(-n2ccc3cc(C(=O)N4CCC(F)(F)CC4)cnc32)nc1 [MF-DH-469]
< 100 nM | CC(C)(O)CCc1cc2cc(C(=O)N3CCC(F)(F)CC3)cnc2n1-c1ccc(C#N)cc1 [MF-DH-444, 4-(5-(4,4-difluoropiperidine-1-carbonyl)-2-(3-hydroxy-3-methylbutyl)-1H-pyrrolo[2,3-b]pyridin-1-yl)benzonitrile]
< 100 nM | COc1ccc(-n2c(CCC(C)(C)O)cc3cc(C(=O)N4CCCCC4)cnc32)cc1 [MF-DH-330, (2-(3-hydroxy-3-methylbutyl)-1-(4-methoxyphenyl)-1H-pyrrolo[2,3-b]pyridin-5-yl)(piperidin-1-yl)methanone]
< 100 nM | O=C(c1ccn2c(-c3cccc(Cl)c3)cnc2c1)N1CCCCC1 [MF-PGDH-007, (3-(3-chlorophenyl)imidazo[1,2-a]pyridin-7-yl)(piperidin-1-yl)methanone]
< 100 nM | O=C(c1ccc2c(-c3cccc(Cl)c3)c[nH]c2c1)N1CCCCC1 [MF-PGDH-053, (3-(3-chlorophenyl)-1H-indol-6-yl)(piperidin-1-yl)methanone]
< 100 nM | O=C(c1ccc2c(c1)ncn2-c1ccc2c(c1)OCO2)N1CCCCC1 [MF-PGDH-062]
< 100 nM | O=C(c1ccc2c(c1)c(Cl)cn2-c1cccc(Cl)c1)N1CCCCC1 [MF-PGDH-005]
